Measured values from patent US4125607A, “Daunosaminyl anthracyclinones and their use” (Societa' Farmaceutici Italia S.p.A., priority 1975, dated 1978).
≈ marks a conversion by molar mass, not a printed value. Like-named read-outs stand apart in the source and are kept apart here.

Key:
HeLa cells = assay: Inhibition of colony forming ability of cultured HeLa cells in vitro; format: cell-based; details: for IC50: Homo sapiens, read-out: ID50 (50% inhibiting dose)
Description: Biological activity on cultured HeLa cells. Data
are expressed as 50% inhibiting dose (ng/ml) at
different times of exposure.

Sarcoma 180 ascites = assay: Antitumor activity in mice bearing Sarcoma 180 ascites, single ip treatment on day 1; format: in vivo; details: for LTS (long term survivors) / T/C % (survival time as percentage of controls) / TOX (toxic deaths): single ip on day 1
Description: Antitumor activity in mice bearing Sarcoma 180 ascites;
single intraperitoneal treatment on day 1. The results
are expressed as the time of survival of treated animals
as a percentage of the controls (T/C %), the number of
long term survivors (LTS) and toxic deaths (TOX).

L 1210 leukemia = assay: Activity on L 1210 leukemia in BDF1 mice (Table 3); format: in vivo
Description: ^1 BDF1 mice received 10^5 ascites cells ip on Day 0 - Treatment

P 388 leukemia = assay: Activity on P 388 leukemia in BDF1 mice (Table 3); format: in vivo
Description: ^2 BDF1 mice received 10^6 ascites cells ip on Day 0 - Treatment

Gross leukemia = assay: Activity on Gross leukemia in C3H/Hc mice (Table 3); format: in vivo
Description: ^3 C3H/Hc mice received 2×10^6 leukemic cells iv on Day 0 -
Treatment iv on Days 1, 2, 3.

L1210 leukemia = assay: Activity on L1210 leukemia in BDF1 mice (Table 4); format: in vivo
Protocol: |Activity on L1210 leukemia |BDF1 mice were injected ip with 10^5 ascites |cells on Day 0 and treated ip on Day 1.

CC1OC(OC2CC(O)(C(=O)CO)Cc3c(O)c4c(c(O)c32)C(=O)c2ccccc2C4=O)CC(N)C1O (stereo not shown) [4-demethoxyadriamycin]
Activity relative to adriamycin (inhibition of colony forming ability) (HeLa cells; HeLa cells in vitro, from Table 1): about one hundred times more active than adriamycin | IC50 (HeLa cells; HeLa cells, 2 hrs. exposure): 1.5 ng/mL (≈ 0.00292 µM) | IC50 (HeLa cells; HeLa cells, 8 hrs. exposure): 0.34 ng/mL (≈ 0.000662 µM) | IC50 (HeLa cells; HeLa cells, 24 hrs. exposure): 0.14 ng/mL (≈ 0.000273 µM) | LTS (long term survivors) (Sarcoma 180 ascites; 0.25 mg/kg): 7/10 | T/C % (survival time as percentage of controls) (Sarcoma 180 ascites; 0.25 mg/kg): above 583% | LTS (long term survivors) (Sarcoma 180 ascites; 0.5 mg/kg): 6/10 | T/C % (survival time as percentage of controls) (Sarcoma 180 ascites; 0.5 mg/kg): above 583% | T/C % (survival time as percentage of controls) (Sarcoma 180 ascites; 1.0 mg/kg): 218% | TOX (toxic deaths) (Sarcoma 180 ascites; 1.0 mg/kg): 6/9 | Activity relative to adriamycin (Sarcoma 180 ascites; Sarcoma 180 ascites, from Table 2): at least ten times more active than adriamycin | T/C % (L 1210 leukemia; L 1210, 0.25 mg/kg ip on Day 1): 155% | T/C % (L 1210 leukemia; L 1210, 0.5 mg/kg ip on Day 1): 166% | T/C % (L 1210 leukemia; L 1210, 1 mg/kg ip on Day 1): 133% | Tox (L 1210 leukemia; L 1210, 1 mg/kg ip on Day 1): 10/10 | T/C % (P 388 leukemia; P 388, 0.25 mg/kg ip on Day 1): 168% | T/C % (P 388 leukemia; P 388, 0.5 mg/kg ip on Day 1): 195% | T/C % (P 388 leukemia; P 388, 1 mg/kg ip on Day 1): 209% | Tox (P 388 leukemia; P 388, 1 mg/kg ip on Day 1): 2/10 | T/C % (Gross leukemia; 0.35 mg/kg iv on Days 1, 2, 3): 228% | Tox (Gross leukemia; 0.35 mg/kg iv on Days 1, 2, 3): 1/10 | T/C % (Gross leukemia; 0.45 mg/kg iv on Days 1, 2, 3): 214% | Tox (Gross leukemia; 0.45 mg/kg iv on Days 1, 2, 3): 1/10 | T/C % (Gross leukemia; 0.6 mg/kg iv on Days 1, 2, 3): 157% | Tox (Gross leukemia; 0.6 mg/kg iv on Days 1, 2, 3): 8/10

COc1cccc2c1C(=O)c1c(O)c3c(c(O)c1C2=O)C[C@@](O)(C(=O)CO)C[C@@H]3O[C@H]1C[C@H](N)[C@H](O)[C@H](C)O1 [Adriamycin]
IC50 (HeLa cells; HeLa, 2 h): 125 ng/mL (≈ 0.23 µM) | IC50 (HeLa cells; HeLa, 8 h): 28 ng/mL (≈ 0.0515 µM) | IC50 (HeLa cells; HeLa, 24 h): 12.5 ng/mL (≈ 0.023 µM) | LTS (long term survivors) (Sarcoma 180 ascites; 2.5 mg/kg): 7/10 | T/C % (survival time as percentage of controls) (Sarcoma 180 ascites; 2.5 mg/kg): above 583% | LTS (long term survivors) (Sarcoma 180 ascites; 5.0 mg/kg): 2/10 | T/C % (survival time as percentage of controls) (Sarcoma 180 ascites; 5.0 mg/kg): 211% | TOX (toxic deaths) (Sarcoma 180 ascites; 5.0 mg/kg): 3/9 | T/C % (survival time as percentage of controls) (Sarcoma 180 ascites; 10.0 mg/kg): 163% | TOX (toxic deaths) (Sarcoma 180 ascites; 10.0 mg/kg): 4/10 | T/C % (L 1210 leukemia; L 1210, 2.5 mg/kg ip on Day 1): 155% | T/C % (L 1210 leukemia; L 1210, 5 mg/kg ip on Day 1): 166% | Tox (L 1210 leukemia; L 1210, 5 mg/kg ip on Day 1): 1/10 | T/C % (L 1210 leukemia; L1210, 10 mg/kg ip on Day 1): 155% | Tox (L 1210 leukemia; L1210, 10 mg/kg ip on Day 1): 4/10 | T/C % (P 388 leukemia; P 388, 2.5 mg/kg ip on Day 1): 173% | T/C % (P 388 leukemia; P 388, 5 mg/kg ip on Day 1): 218% | T/C % (P 388 leukemia; P 388, 10 mg/kg ip on Day 1): 230% | Tox (P 388 leukemia; P 388, 10 mg/kg ip on Day 1): 1/10 | T/C % (Gross leukemia; 3.5 mg/kg iv on Days 1, 2, 3): 164% | T/C % (Gross leukemia; 4.4 mg/kg iv on Days 1, 2, 3): 186% | T/C % (Gross leukemia; 6.0 mg/kg iv on Days 1, 2, 3): 214% | Tox (Gross leukemia; 6.0 mg/kg iv on Days 1, 2, 3): 3/10 | T/C % (L1210 leukemia; L1210, 2.9 mg/kg ip on Day 1): 141% | LTS (L1210 leukemia; L1210, 4.4 mg/kg ip on Day 1): 1/10 | T/C % (L1210 leukemia; L1210, 4.4 mg/kg ip on Day 1): 152% | T/C % (L1210 leukemia; L1210, 6.6 mg/kg ip on Day 1): 158% | LTS (L1210 leukemia; L1210, 10 mg/kg ip on Day 1): 1/10 | T/C % (L1210 leukemia; L1210, 10 mg/kg ip on Day 1): 164%

Cc1cc2c(cc1C)C(=O)c1c(O)c3c(c(O)c1C2=O)CC(O)(C(=O)CO)CC3OC1CC(N)C(O)C(C)O1 (stereo not shown) [2,3-Dimethyl-4-demethoxy-adriamycin, 4-demethoxy-2,3-dimethyladriamycin]
T/C % (L1210 leukemia; L1210, 1.9 mg/kg ip on Day 1): 152% | T/C % (L1210 leukemia; L1210, 2.9 mg/kg ip on Day 1): 152% | LTS (L1210 leukemia; L1210, 4.4 mg/kg ip on Day 1): 1/10 | T/C % (L1210 leukemia; L1210, 4.4 mg/kg ip on Day 1): 170%
